From US20240246942A1, “KINASE INHIBITORS FOR THE TREATMENT OF NEURODEGENERATIVE DISEASES” (priority 2020, published 2024)
Read-outs that look alike come from different tables or passages of the source.

Experiments:
Test in all cases: biochemical
[1] = biological target: T1, panel of 374 wild-type kinases (Homo sapiens, UniProt P51812); details: read-out: % Enzyme Activity (relative to DMSO controls), kinase RSK2
T1 construct: purchased Reaction Biology Corporation

[2] = biological target: T2, panel of 374 wild-type kinases (Homo sapiens, UniProt P24941)
T2 construct: purchased Reaction Biology Corporation

[3] = biological target: T3, panel of 374 wild-type kinases (Homo sapiens, UniProt Q9Y6E0); details: read-out: % Enzyme Activity (relative to DMSO controls), MST3/STK24
T3 construct: purchased Reaction Biology Corporation

[4] = biological target: T4, panel of 374 wild-type kinases (Homo sapiens, UniProt Q9NR20); details: read-out: % Enzyme Activity (relative to DMSO controls), DYRK4
T4 construct: purchased Reaction Biology Corporation
T4 sequence (Q9NR20 1-520): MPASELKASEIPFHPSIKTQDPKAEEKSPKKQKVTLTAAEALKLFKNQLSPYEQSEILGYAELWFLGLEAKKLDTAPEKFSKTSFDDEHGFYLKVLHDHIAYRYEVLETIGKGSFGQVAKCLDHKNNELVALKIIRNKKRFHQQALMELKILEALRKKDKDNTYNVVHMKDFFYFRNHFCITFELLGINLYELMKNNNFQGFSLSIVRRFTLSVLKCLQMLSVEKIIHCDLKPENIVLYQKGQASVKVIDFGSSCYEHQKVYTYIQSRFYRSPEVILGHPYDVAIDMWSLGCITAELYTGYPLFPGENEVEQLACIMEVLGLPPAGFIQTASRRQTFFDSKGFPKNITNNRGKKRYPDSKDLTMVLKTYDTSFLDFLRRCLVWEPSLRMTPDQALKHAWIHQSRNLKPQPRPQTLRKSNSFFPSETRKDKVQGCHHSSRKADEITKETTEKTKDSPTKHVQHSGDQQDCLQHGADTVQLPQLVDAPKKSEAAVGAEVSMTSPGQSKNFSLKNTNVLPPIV

[5] = biological target: T5, panel of 374 wild-type kinases (Homo sapiens, UniProt Q9Y2U5); details: read-out: % Enzyme Activity (relative to DMSO controls), MEKK2
T5 construct: purchased Reaction Biology Corporation
T5 sequence (Q9Y2U5 1-619): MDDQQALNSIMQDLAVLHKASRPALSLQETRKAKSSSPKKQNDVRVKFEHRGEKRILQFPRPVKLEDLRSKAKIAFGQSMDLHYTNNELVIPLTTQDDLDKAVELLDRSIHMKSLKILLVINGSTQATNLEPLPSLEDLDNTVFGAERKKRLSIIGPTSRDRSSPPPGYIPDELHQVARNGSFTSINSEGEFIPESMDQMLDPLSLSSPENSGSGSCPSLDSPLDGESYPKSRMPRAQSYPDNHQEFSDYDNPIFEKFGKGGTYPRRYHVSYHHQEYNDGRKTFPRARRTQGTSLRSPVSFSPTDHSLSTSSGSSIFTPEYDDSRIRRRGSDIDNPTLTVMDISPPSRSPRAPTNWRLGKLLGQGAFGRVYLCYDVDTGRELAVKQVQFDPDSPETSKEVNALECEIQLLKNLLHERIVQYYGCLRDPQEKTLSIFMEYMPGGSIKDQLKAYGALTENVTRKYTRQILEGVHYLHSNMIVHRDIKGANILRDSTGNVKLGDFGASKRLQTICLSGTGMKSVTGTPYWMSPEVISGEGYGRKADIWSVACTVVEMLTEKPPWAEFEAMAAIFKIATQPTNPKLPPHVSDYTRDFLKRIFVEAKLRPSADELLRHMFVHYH

[6] = biological target: T6, panel of 374 wild-type kinases (Homo sapiens, UniProt Q9UL54); details: read-out: % Enzyme Activity (relative to DMSO controls), kinase TAOK2/TAO1
T6 construct: purchased Reaction Biology Corporation
T6 sequence (Q9UL54 1-1235): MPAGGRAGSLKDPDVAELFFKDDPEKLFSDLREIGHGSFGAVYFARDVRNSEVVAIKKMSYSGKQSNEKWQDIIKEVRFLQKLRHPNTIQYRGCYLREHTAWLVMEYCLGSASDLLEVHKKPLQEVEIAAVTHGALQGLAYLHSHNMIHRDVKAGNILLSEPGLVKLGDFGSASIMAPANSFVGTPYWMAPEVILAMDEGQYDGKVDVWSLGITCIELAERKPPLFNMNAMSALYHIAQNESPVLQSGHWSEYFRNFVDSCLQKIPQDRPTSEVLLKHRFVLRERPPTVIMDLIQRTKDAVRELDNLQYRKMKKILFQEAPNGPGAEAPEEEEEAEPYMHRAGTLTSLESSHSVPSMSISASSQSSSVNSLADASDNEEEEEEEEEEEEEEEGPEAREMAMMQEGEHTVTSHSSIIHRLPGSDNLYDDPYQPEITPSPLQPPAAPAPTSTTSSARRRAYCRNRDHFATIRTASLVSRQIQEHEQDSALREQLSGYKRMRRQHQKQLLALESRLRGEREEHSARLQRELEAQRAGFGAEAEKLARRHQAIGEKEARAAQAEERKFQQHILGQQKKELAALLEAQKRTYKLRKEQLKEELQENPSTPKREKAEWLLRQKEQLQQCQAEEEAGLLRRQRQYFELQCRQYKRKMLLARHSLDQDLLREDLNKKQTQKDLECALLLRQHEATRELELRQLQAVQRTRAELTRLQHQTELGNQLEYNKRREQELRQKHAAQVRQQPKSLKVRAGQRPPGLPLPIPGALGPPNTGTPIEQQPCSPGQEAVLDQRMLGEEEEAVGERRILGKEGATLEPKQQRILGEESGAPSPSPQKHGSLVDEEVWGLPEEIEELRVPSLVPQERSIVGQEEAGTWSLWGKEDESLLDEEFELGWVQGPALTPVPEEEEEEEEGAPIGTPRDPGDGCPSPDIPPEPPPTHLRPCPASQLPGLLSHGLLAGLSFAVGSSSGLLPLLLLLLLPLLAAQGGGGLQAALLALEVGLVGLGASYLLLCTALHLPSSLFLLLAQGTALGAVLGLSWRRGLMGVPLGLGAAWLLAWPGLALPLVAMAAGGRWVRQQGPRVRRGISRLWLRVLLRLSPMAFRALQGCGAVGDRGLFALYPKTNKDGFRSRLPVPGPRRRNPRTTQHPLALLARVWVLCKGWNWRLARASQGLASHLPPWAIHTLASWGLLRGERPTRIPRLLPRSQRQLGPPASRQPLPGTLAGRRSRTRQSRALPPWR

[7] = biological target: T7, panel of 374 wild-type kinases (Homo sapiens, UniProt Q13627); details: read-out: % Enzyme Activity (relative to DMSO controls), DYRK1/DYRK1A
T7 construct: purchased Reaction Biology Corporation

[8] = read-out: % Enzyme Activity (relative to DMSO controls), CDK2/Cyclin A1
[9] = read-out: % Enzyme Activity (relative to DMSO controls), CDK2/cyclin A
[10] = read-out: % Enzyme Activity (relative to DMSO controls), CDK2/cyclin E2
[11] = read-out: % Enzyme Activity (relative to DMSO controls), CDK2/cyclin E
[12] = read-out: % Enzyme Activity (relative to DMSO controls), CDK2/cyclin O

T1 sequence (P51812 whole entry): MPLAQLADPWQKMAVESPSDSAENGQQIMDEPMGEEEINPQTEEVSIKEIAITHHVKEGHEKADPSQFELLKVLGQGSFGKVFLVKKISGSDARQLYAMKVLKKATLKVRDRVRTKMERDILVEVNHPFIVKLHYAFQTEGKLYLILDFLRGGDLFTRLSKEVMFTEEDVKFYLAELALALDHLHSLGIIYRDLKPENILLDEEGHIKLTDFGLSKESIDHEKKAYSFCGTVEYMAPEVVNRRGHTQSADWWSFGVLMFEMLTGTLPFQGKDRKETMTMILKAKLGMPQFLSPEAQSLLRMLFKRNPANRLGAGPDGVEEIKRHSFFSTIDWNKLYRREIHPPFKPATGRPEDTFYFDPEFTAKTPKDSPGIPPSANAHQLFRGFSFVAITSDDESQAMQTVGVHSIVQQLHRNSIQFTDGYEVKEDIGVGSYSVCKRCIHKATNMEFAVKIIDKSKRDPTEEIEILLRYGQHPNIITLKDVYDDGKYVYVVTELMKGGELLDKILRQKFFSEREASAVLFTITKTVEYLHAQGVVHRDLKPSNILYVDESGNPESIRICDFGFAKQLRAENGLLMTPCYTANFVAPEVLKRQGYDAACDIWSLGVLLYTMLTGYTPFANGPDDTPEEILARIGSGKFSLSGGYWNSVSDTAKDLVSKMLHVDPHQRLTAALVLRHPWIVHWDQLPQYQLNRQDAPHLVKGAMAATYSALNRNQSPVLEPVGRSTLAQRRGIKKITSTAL
T3 sequence (Q9Y6E0 whole entry): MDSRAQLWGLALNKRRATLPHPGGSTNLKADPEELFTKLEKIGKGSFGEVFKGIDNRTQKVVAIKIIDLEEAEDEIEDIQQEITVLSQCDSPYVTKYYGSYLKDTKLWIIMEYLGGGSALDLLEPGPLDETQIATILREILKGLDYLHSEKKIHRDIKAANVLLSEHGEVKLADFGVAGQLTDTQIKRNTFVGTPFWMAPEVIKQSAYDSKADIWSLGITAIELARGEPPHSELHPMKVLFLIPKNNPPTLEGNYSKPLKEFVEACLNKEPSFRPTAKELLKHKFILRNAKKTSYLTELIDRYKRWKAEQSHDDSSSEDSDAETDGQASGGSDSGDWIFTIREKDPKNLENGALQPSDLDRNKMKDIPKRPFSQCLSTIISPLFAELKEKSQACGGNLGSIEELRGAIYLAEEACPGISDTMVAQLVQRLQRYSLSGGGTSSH

Row | SMILES | remaining activity at 5 µM [1] | remaining activity at 5 µM [2, 8] | remaining activity at 5 µM [2, 9] | remaining activity at 5 µM [2, 10] | remaining activity at 5 µM [2, 11] | remaining activity at 5 µM [2, 12] | remaining activity at 5 µM [3] | remaining activity at 5 µM [4] | remaining activity at 5 µM [5] | remaining activity at 5 µM [6] | remaining activity at 5 µM [7] | further results
1 | Cc1sc(C(=O)NC2COC2)cc1-n1cc(NC(=O)Nc2c(F)cccc2Cl)cn1 [Compound 27, 4-(4-(3-(2-chloro-6-fluorophenyl)ureido)-1H-pyrazol-1-yl)-5-methyl-N-(oxetan-3-yl)thiophene-2-carboxamide] | – | – | – | – | – | – | – | – | – | – | – | remaining activity at 10 µM ([1]; 10 uM): 73%; remaining activity at 10 µM [2, 8]: 111%; remaining activity at 10 µM [2, 9]: 98.3%; remaining activity at 10 µM [2, 10]: 90.8%; remaining activity at 10 µM [2, 11]: 106%; remaining activity at 10 µM [2, 12]: 105%; remaining activity at 10 µM ([3]; 10 uM): 67.3%; remaining activity at 10 µM ([4]; 10 uM): 93.7%; remaining activity at 10 µM ([5]; 10 uM): 88.1%; remaining activity at 10 µM ([6]; 10 uM): 93.3%; remaining activity at 10 µM ([7]; 10 uM): 95.5%
2 | O=C(Nc1cnn(-c2csc(C(=O)NC3COC3)c2)c1)Nc1c(F)cccc1Cl [Compound 25, 4-(4-(3-(2-chloro-6-fluorophenyl)ureido)-1H-pyrazol-1-yl)-N-(oxetan-3-yl)thiophene-2-carboxamide] | 79.9% | 94.2% | 93.8% | 98.9% | 94.6% | 94.1% | 81.6% | 96.2% | 80.1% | 88.2% | 75.1% | –
3 | O=C(Nc1cnn(-c2csc(C(=O)NC3COC3)c2)c1)Nc1ccccc1Cl [Compound 17, 4-(4-(3-(2-chlorophenyl)ureido)-1H-pyrazol-1-yl)-N-(oxetan-3-yl)thiophene-2-carboxamide] | 101% | 106% | 93.6% | 107% | 99% | 93.2% | 113% | 94.6% | 110% | 101% | 86% | –
